The target in one data set is T1, CDK5/GST-p25 (Homo sapiens, UniProt Q00535).
T1 construct: The final construct, encoding for full-length human CDK5; made in house; host or cells: Sf21 insect cells (baculovirus co-infection)
In words: Inhibition of CDK5/GST-p25 kinase activity (ELISA with time-resolved fluorescence readout). The format is biochemical. The method in brief:
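The substrate, GST-Rb(773-928), was immobilised on plates and phosphorylated for 20 min at 37 °C by 2 ng/ml CDK5/GST-p25 in HEPES pH 7.2 with 10 µM ATP and 10 mM MgCl2. Both proteins were human and co-expressed in insect cells. Ser-780 phosphorylation was read by europium time-resolved fluorescence and converted to IC50.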

A further data set addresses T2, His6-GSK-3β (Homo sapiens, UniProt P49841).
T2 construct: made in house; host or cells: Sf21 insect cells (baculovirus)
Description: Inhibition of His6-GSK-3β kinase activity (ELISA-based format, time-resolved fluorescence readout). In kind it is biochemical. As to conditions: read-out: GSK3β IC50. The method in brief:
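Plate-bound recombinant GST-Rb substrate was phosphorylated for 30 min at 37° C by baculovirus-expressed His6-GSK-3β (200 ng/ml) at 20 μM ATP, 10 mM MgCl2, 2.5% DMSO. Europium time-resolved fluorescence of anti-phospho-Ser780 Rb signal gave inhibition, fitted to IC50.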

Structures can show the parent of a compound that is named as a salt. Where two headings read alike, the source gives them in different places.

T2 sequence (P49841 2-419): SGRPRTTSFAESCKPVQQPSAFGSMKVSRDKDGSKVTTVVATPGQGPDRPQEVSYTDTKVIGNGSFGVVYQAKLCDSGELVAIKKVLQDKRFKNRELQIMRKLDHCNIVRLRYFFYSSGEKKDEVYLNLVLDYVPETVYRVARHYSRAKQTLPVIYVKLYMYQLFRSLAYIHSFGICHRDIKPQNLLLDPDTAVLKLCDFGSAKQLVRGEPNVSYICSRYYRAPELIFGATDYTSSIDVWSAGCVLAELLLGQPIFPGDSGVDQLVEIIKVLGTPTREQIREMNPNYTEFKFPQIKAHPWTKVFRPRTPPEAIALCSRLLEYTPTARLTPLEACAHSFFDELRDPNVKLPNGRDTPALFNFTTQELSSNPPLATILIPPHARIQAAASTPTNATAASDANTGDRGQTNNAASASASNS
T1 sequence (Q00535 whole entry): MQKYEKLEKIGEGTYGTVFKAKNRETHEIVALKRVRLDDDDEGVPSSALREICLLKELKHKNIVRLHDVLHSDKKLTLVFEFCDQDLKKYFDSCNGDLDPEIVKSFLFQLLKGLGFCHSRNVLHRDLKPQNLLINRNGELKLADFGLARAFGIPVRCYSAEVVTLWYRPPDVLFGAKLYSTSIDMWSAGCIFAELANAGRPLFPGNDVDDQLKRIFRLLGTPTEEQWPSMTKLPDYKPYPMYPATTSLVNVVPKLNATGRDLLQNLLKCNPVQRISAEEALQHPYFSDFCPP
T1 sequence (Q15078 108-307 partner limits assumed): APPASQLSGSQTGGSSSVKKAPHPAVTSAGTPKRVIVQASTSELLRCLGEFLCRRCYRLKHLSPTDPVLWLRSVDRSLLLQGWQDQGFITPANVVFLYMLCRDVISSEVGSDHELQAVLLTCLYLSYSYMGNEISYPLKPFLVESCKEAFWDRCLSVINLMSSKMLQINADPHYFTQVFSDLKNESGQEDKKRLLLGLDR

Compound `O=C1Nc2c(cc([N+](=O)[O-])cc2[N+](=O)[O-])C1c1ncnc2c1cnn2C1CCCC1` (stereo not drawn) [Example 60, 3-(1-cyclopentyl-1H-pyrazolo[3,4-d]pyrimidin-4-yl)-5,7-dinitro-1,3-dihydro-indol-2-one] registered a melting point of 242 to 246 °C. At CDK5/GST-p25 (class symbols), this compound registered an IC50 of more than 10 µM. The IC50 at His6-GSK-3β (class symbols) was more than 10000 nM.

In the case of `O=C1Nc2ccc(Cl)cc2C1c1ncnc2c1cnn2C1CCCC1` (stereo not drawn) [Example 58, 5-Chloro-3-(1-cyclopentyl-1H-pyrazolo[3,4-d]pyrimidin-4-yl)-1,3-dihydro-indol-2-one], the melting point lay in the range of 304 to 306 °C. At CDK5/GST-p25 (class symbols), this compound registered an IC50 of more than 10 µM. The IC50 at His6-GSK-3β (numeric bounds) is more than 3000 nM.

On to `O=C1Nc2c(cc([N+](=O)[O-])cc2[N+](=O)[O-])C1c1ncnc2nn(C3CCCC3)cc12` (stereo not drawn) [Example 43, 3-(2-Cyclopentyl-2H-pyrazolo[3,4-d]pyrimidin-4-yl)-5,7-dinitro-1,3-dihydro-indol-2-one], for which the melting point is more than 300 °C. For the same compound, the half-maximal inhibitory concentration (IC50) against CDK5/GST-p25 (class symbols) was 0.3 to 3 µM. The IC50 at His6-GSK-3β (class symbols) was 300 to 3000 nM.

The compound `O=C1Nc2ccc([N+](=O)[O-])cc2C1c1ncnc2nn(C3CCCCC3)cc12` (stereo not drawn) [Example 49, 3-(2-Cyclohexyl-2H-pyrazolo[3,4-d]pyrimidin-4-yl)-5-nitro-1,3-dihydroindol-2-one] showed a melting point of 301 to 304 °C. At CDK5/GST-p25 (class symbols), this compound gave an IC50 of less than 0.3 µM. Moreover, on His6-GSK-3β (class symbols), the IC50 was less than 300 nM.

On to `O=C1Nc2ccc(C(F)(F)F)cc2C1c1nc(NCCc2ccccn2)nc2nn(C3CCCC3)cc12` (stereo not drawn) [Example 247, 3-[2-Cyclopentyl-6-(2-pyridin-2-yl-ethylamino)-2H-pyrazolo[3,4-d]pyrimidin-4-yl]-5-trifluoromethyl-1,3-dihydro-indol-2-one], for which the melting point is more than 300 °C. For the same compound, the half-maximal inhibitory concentration (IC50) against CDK5/GST-p25 (class symbols) is more than 10 µM. The IC50 on His6-GSK-3β (class symbols) was less than 300 nM.

`O=C1Nc2ccc(F)cc2C1c1ncnc2c1cnn2C1CCCC1` (stereo not drawn) [Example 65, 3-(1-Cyclopentyl-1H-pyrazolo[3,4-d]pyrimidin-4-yl)-5-fluoro-1,3-dihydro-indol-2-one] yielded a melting point of 254 to 257 °C. On CDK5/GST-p25 (class symbols), this compound had an IC50 of more than 10 µM. In addition, the concentration for half-maximal inhibition (IC50) at His6-GSK-3β (class symbols) was more than 10000 nM.

With `CCCn1cc2c(C3C(=O)Nc4ccc(S(=O)(=O)N(C)C)cc43)nc(NCCN(C)C)nc2n1` (stereo not drawn) [Example 205, 3-[6-(2-Dimethylamino-ethylamino)-2-propyl-2H-pyrazolo [3,4-d]pyrimidin-4-yl]-2-oxo-2,3-dihydro-1H-indole-5-sulfonic acid dimethylamide], the melting point lay in the range of 259 to 263 °C. On CDK5/GST-p25 (numeric bounds), the IC50 was more than 3 µM. For the same compound, at His6-GSK-3β (class symbols), the IC50 is more than 10000 nM.

In turn, `CCOCCn1cc2c(C3C(=O)Nc4ccc(Cl)cc43)nc(NC[C@H](C)O)nc2n1` (stereo partly drawn) [Example 219, 5-Chloro-3-[2-(2-ethoxy-ethyl)-6-((S)-2-hydroxy-propylamino)-2H-pyrazolo [3,4-d]pyrimidin-4-yl]-1,3-dihydro-indol-2-one] had a melting point of more than 300 °C. The IC50 against CDK5/GST-p25 (class symbols) is less than 0.3 µM. Besides, the IC50 on His6-GSK-3β (class symbols) was less than 300 nM.

Regarding `CCCn1cc2c(C3C(=O)Nc4ccc(Br)cc43)nc(NCCc3cccnc3)nc2n1` (stereo not drawn) [Example 189, 5-Bromo-3-[2-propyl-6-(2-pyridin-3-yl-ethylamino)-2H-pyrazolo [3,4-d]pyrimidin-4-yl]-1,3-dihydro-indol-2-one], the melting point was in the range of 294 to 297 °C. The IC50 against CDK5/GST-p25 (class symbols) is less than 0.3 µM. The IC50 on His6-GSK-3β (class symbols) was less than 300 nM.

Compound `CNCCCNc1nc(C2C(=O)Nc3ccc(C(F)(F)F)cc32)c2cn(C3CCCC3)nc2n1` (stereo not drawn) (as salt: hydrochloride) [Example 253, 3-[2-Cyclopentyl-6-(3-methylamino-propylamino)-2H-pyrazolo [3,4-d]pyrimidin-4-yl]-5-trifluoromethyl-1,3-dihydro-indol-2-one hydrochloride salt] returned a melting point of 260 to 262 °C.

As to `O=C1Nc2cc(Cl)ccc2C1c1ncnc2nn(C3CCCCC3)cc12` (stereo not drawn) [Example 51, 6-Chloro-3-(2-cyclohexyl-2H-pyrazolo[3,4-d]pyrimidin-4-yl)-1,3-dihydro-indol-2-one], the melting point fell in the range of 299 to 303 °C. The half-maximal inhibitory concentration (IC50) against CDK5/GST-p25 (numeric bounds) is more than 3 µM.

For `CNCCCNc1nc(C2C(=O)Nc3ccc(Br)cc32)c2cn(CCOC)nc2n1` (stereo not drawn) (as salt: hydrochloride) [Example 226, 5-Bromo-3-[2-(2-methoxy-ethyl)-6-(3-methylamino-propylamino)-2H-pyrazolo[3,4-d]pyrimdin-4-yl]-1,3-dihydro-indol-2-one], the melting point fell in the range of 232 to 236 °C.

The compound `Cn1cc2c(C3C(=O)Nc4ccc(Br)cc43)nc(Cl)nc2n1` (stereo not drawn) [Example 300, 5-Bromo-3-(6-chloro-2-methyl-2H-pyrazolo[3,4-d]pyrimidin-4-yl)-1,3-dihydro-indol-2-one] came in with a melting point of more than 300 °C.

`CCCn1cc2c(C3(F)C(=O)Nc4ccc(Br)cc43)ncnc2n1` (stereo not drawn) [Example 383, 5-Bromo-3-fluoro-3-(2-propyl-2H-pyrazolo[3,4-d]pyrimidin-4-yl)-1,3-dihydroindol-2-one] yielded a melting point of 184 to 186 °C.

On to `CCCn1cc2c(C3C(=O)Nc4ccc(Br)cc43)nc(NCCCNC)nc2n1` (stereo not drawn) (as salt: hydrochloride) [Example 201, 5-Bromo-3-[6-(3-methylamino-propylamino)-2-propyl-2H-pyrazolo [3,4-d]pyrimidin-4-yl]-1,3-dihydro-indol-2-one hydrochloride], for which the melting point lay within 271 to 273 °C.

For `CCCn1cc2c(C3C(=O)Nc4ccc(C#N)cc43)nc(Cl)nc2n1` (stereo not drawn) [Example 183, 3-(6-Chloro-2-propyl-2H-pyrazolo [3,4-d]pyrimidin-4-yl)-2-oxo-2,3-dihydro-1H-indole-5-carbonitrile], the melting point is more than 300 °C.

Regarding `CCOCCn1cc2c(C3C(=O)Nc4ccc(Cl)cc43)nc(NCCCNC)nc2n1` (stereo not drawn) (as salt: hydrochloride) [Example 215, 5-Chloro-3-[2-(2-ethoxy-ethyl)-6-(3-methylamino-propylamino)-2H-pyrazolo [3,4-d]pyrimidin-4-yl]-1,3-dihydro-indol-2-one], the melting point was 275 to 277 °C.

`CNCCCNc1nc(C2C(=O)Nc3ccc(Br)cc32)c2cn(C)nc2n1` (stereo not drawn) (as salt: hydrochloride) [Example 306, 5-Bromo-3-[2-methyl-6-(3-methylamino-propylamino)-2H-pyrazolo [3,4-d]pyrimidin-4-yl]-1,3-dihydro-indol-2-one] registered a melting point of 271 to 273 °C.

For the compound `CCCCCn1cc2c(C3C(=O)Nc4ccc(C(F)(F)F)cc43)nc(Cl)nc2n1` (stereo not drawn), the melting point was 267 °C (dec.).

In the case of `COC[C@H]1C[C@@H](n2cnc3c(C4C(=O)Nc5ccc(C#N)cc54)ncnc32)[C@H](O)[C@@H]1O` (stereo partly drawn) [Example 29, 3-[9-((1R,2S,3R,4R)-2,3-Dihydroxy-4-methoxymethyl-cyclopentyl)-9H-purin-6-yl]-2-oxo-2,3-dihydro-1H-indole-5-carbonitrile], the melting point is 230 to 236 °C (dec.).

As to `CN(C)CCNc1nc(C2C(=O)Nc3ccc(Br)cc32)c2cn(C3CCCC3)nc2n1` (stereo not drawn) (as salt: TFA) [Example 370, 5-Bromo-3-[2-cyclopentyl-6-(2-dimethylamino-ethylamino)-2H-pyrazolo [3,4-d]pyrimidin-4-yl]-1,3-dihydro-indol-2-one], the melting point lay in the range of 190 to 192 °C.

`COCCn1cc2c(C3C(=O)Nc4ccc(Br)cc43)nc(NCCC3CCNCC3)nc2n1` (stereo not drawn) (as salt: hydrochloride) [Example 227, 5-Bromo-3-[2-(2-methoxy-ethyl)-6-(2-piperidin-4-yl-ethylamino)-2H-pyrazolo[3,4-d]pyrimidin-4-yl]-1,3-dihydro-indol-2-one] gave a melting point of 248 to 251 °C.

`COCCn1cc2c(C3C(=O)Nc4ccc(Br)cc43)nc(NCCC3CCCNC3)nc2n1` (stereo not drawn) (as salt: hydrochloride) [Example 228, 5-Bromo-3-[2-(2-methoxy-ethyl)-6-(2-piperidin-3-yl-ethylamino)-2H-pyrazolo[3,4-d]pyrimidin-4-yl]-1,3-dihydro-indol-2-one] had a melting point of 270 to 273 °C.

As to `O=C1Nc2ccc(Br)cc2C1c1nc(NCc2ccncc2)nc2nn(C3CCCC3)cc12` (stereo not drawn) [Example 180, 5-Bromo-3-{2-cyclopentyl-6-[(pyridin-4-ylmethyl)-amino]-2H-pyrazolo[3,4-d]pyrimidin-4-yl}-1,3-dihydro-1H-indol-2-one], the concentration for half-maximal inhibition (IC50) against CDK5/GST-p25 (class symbols) is less than 0.3 µM; on His6-GSK-3β (class symbols), less than 300 nM.

Regarding `O=C1Nc2ccc(Cl)cc2C1c1nc(NCc2ccccn2)nc2c1CCC2` (stereo not drawn) [Example 330, 5-Chloro-3-{2-[(pyridin-2-ylmethyl)-amino]-6,7-dihydro-5H-cyclopentapyrimidin-4-yl}-1,3-dihydro-indol-2-one], the IC50 at CDK5/GST-p25 (class symbols) was more than 10 µM; on His6-GSK-3β (class symbols), more than 10000 nM.

For the compound `CCCn1cc2c(C3C(=O)Nc4ccc(Br)cc43)nc(NCCCNC)nc2n1` (stereo not drawn) [Example 201, 5-Bromo-3-[6-(3-methylamino-propylamino)-2-propyl-2H-pyrazolo [3,4-d]pyrimidin-4-yl]-1,3-dihydro-indol-2-one hydrochloride], the IC50 is less than 0.3 µM against CDK5/GST-p25 (class symbols) and less than 300 nM at His6-GSK-3β (class symbols).

The values above are taken from patent US8354414B2, “Substituted bicyclic pyrimidines” (Cephalon, Inc, priority 2006, dated 2013).
